Experimental data as given in patent publication US20240423992A1, “BIOMARKERS FOR TREATING LIVER DISORDERS WITH THR-B AGONISTS AND RELATED USES” (Madrigal Pharmaceuticals, Inc., priority 2023, published 2024).

Test system: adults with nonalcoholic fatty liver disease (NAFLD)/presumed nonalcoholic steatohepatitis (NASH)
Experiment: 52-week Phase 3 trial (Example 1): sex hormone levels
Type: in vivo, human
Details: Week 52
Procedure: A 52-week randomized, double-blind, placebo-controlled Phase 3 trial was conducted to evaluate the safety and effect of resmetirom, an oral, once-daily, liver-targeted thyroid hormone receptor-β selective agonist, on multiple biomarkers in adults with nonalcoholic fatty liver disease (NAFLD)/presumed nonalcoholic steatohepatitis (NASH). Patients were randomized to three double-blind arms (100 mg resmetirom, 80 mg resmetirom, or placebo) or one open-label arm (100 mg resmetirom). Common concomitant medications across the 4 arms were antidiabetes drugs (such as glucagon-like peptide-1 receptor agonists (GLP-1 RAs), metformin, pioglitazone, and sodium/glucose cotransporter-2 inhibitors (SGLT2i)) and drugs to manage dyslipidemia (statins).
Sex hormone levels after 52 weeks of resmetirom treatment are shown in Table A. Thyroid hormone levels after 52 weeks of resmetirom treatment are reported in Table B.

[1] = Resmetirom 80 mg DB vs Placebo DB
[2] = Resmetirom 100 mg DB vs Placebo DB

Compound: CC(C)c1cc(Oc2c(Cl)cc(-n3nc(C#N)c(=O)[nH]c3=O)cc2Cl)n[nH]c1=O [Resmetirom, 2-[3,5-dichloro-4-[(6-oxo-5-propan-2-yl-1H-pyridazin-3-yl)oxy]phenyl]-3,5-dioxo-1,2,4-triazine-6-carbonitrile]
- Estradiol (female) LSM Difference [1]: 7.1 ng/L
- Estradiol (male) LSM Difference [1]: 4.8 ng/L
- FSH (female) LSM Difference [1]: −1.1 IU/L
- FSH (male) LSM Difference [1]: 0.2 IU/L
- Free testosterone (female) LSM Difference [1]: 0.0002 µg/L
- Free testosterone (male) LSM Difference [1]: 0.0115 µg/L
- LH (female) LSM Difference [1]: −0.9 IU/L
- LH (male) LSM Difference [1]: 0.4 IU/L
- SHBG (female) LSM Difference in % CFB [1]: 119.5%
- SHBG (female) LSM Difference in CFB [1]: 39.9 nmol/L
- SHBG (male) LSM Difference in % CFB [1]: 69.7%
- SHBG (male) LSM Difference in CFB [1]: 24.5 (3.9) nmol/L
- SHBG LSM Difference in % CFB [1]: 96.0%
- SHBG LSM Difference in CFB [1]: 32.1 nmol/L
- Testosterone (female) LSM Difference [1]: 0.1 µg/L
- Testosterone (male) LSM Difference [1]: 1.5 µg/L
- Estradiol (female) LSM CFB (Resmetirom 80 mg DB): 5.0 ng/L
- Estradiol (male) LSM CFB (Resmetirom 80 mg DB): 3.3 ng/L
- FSH (female) LSM CFB (Resmetirom 80 mg DB): 0.9 IU/L
- FSH (male) LSM CFB (Resmetirom 80 mg DB): 0.3 IU/L
- Free testosterone (female) LSM CFB (Resmetirom 80 mg DB): 0.0004 µg/L
- Free testosterone (male) LSM CFB (Resmetirom 80 mg DB): 0.0077 µg/L
- LH (female) LSM CFB (Resmetirom 80 mg DB): 0.8 IU/L
- LH (male) LSM CFB (Resmetirom 80 mg DB): 0.4 IU/L
- SHBG (female) LSM % CFB (Resmetirom 80 mg DB): 133.0%
- SHBG (female) LSM CFB (Resmetirom 80 mg DB): 43.3 nmol/L
- SHBG (male) LSM % CFB (Resmetirom 80 mg DB): 67.1%
- SHBG (male) LSM CFB (Resmetirom 80 mg DB): 21.9 nmol/L
- SHBG LSM % CFB (Resmetirom 80 mg DB): 99.6%
- SHBG LSM CFB (Resmetirom 80 mg DB): 32.7 nmol/L
- Testosterone (female) LSM CFB (Resmetirom 80 mg DB): 0.1 µg/L
- Testosterone (male) LSM CFB (Resmetirom 80 mg DB): 1.4 µg/L
- Estradiol (female) LSM Difference [2]: 9.5 ng/L
- Estradiol (male) LSM Difference [2]: 10.4 ng/L
- FSH (female) LSM Difference [2]: −0.4 IU/L
- FSH (male) LSM Difference [2]: 0.5 IU/L
- Free testosterone (female) LSM Difference [2]: -0.0006 µg/L
- Free testosterone (male) LSM Difference [2]: 0.0029 µg/L
- LH (female) LSM Difference [2]: −0.5 IU/L
- LH (male) LSM Difference [2]: 0.8 IU/L
- SHBG (female) LSM Difference in % CFB [2]: 184.0%
- SHBG (female) LSM Difference in CFB [2]: 61.8 nmol/L
- SHBG (male) LSM Difference in % CFB [2]: 125.5%
- SHBG (male) LSM Difference in CFB [2]: 41.7 (3.8) nmol/L
- SHBG LSM Difference in % CFB [2]: 157.5%
- SHBG LSM Difference in CFB [2]: 52.4 nmol/L
- Testosterone (female) LSM Difference [2]: 0.1 µg/L
- Testosterone (male) LSM Difference [2]: 2.1 µg/L
- Estradiol (female) LSM CFB (Resmetirom 100 mg DB): 7.5 ng/L
- Estradiol (male) LSM CFB (Resmetirom 100 mg DB): 8.9 ng/L
- FSH (female) LSM CFB (Resmetirom 100 mg DB): 1.6 IU/L
- FSH (male) LSM CFB (Resmetirom 100 mg DB): 0.6 IU/L
- Free testosterone (female) LSM CFB (Resmetirom 100 mg DB): -0.0003 µg/L
- Free testosterone (male) LSM CFB (Resmetirom 100 mg DB): -0.0009 µg/L
- LH (female) LSM CFB (Resmetirom 100 mg DB): 1.2 IU/L
- LH (male) LSM CFB (Resmetirom 100 mg DB): 0.9 IU/L
- SHBG (female) LSM % CFB (Resmetirom 100 mg DB): 197.6%
- SHBG (female) LSM CFB (Resmetirom 100 mg DB): 65.3 nmol/L
- SHBG (male) LSM % CFB (Resmetirom 100 mg DB): 122.9%
- SHBG (male) LSM CFB (Resmetirom 100 mg DB): 39.2 nmol/L
- SHBG LSM % CFB (Resmetirom 100 mg DB): 161.1%
- SHBG LSM CFB (Resmetirom 100 mg DB): 53.0 nmol/L
- Testosterone (female) LSM CFB (Resmetirom 100 mg DB): 0.1 µg/L
- Testosterone (male) LSM CFB (Resmetirom 100 mg DB): 2.0 µg/L
- Estradiol (female) LSM CFB (Resmetirom 100 mg OL): 11.0 ng/L
- Estradiol (male) LSM CFB (Resmetirom 100 mg OL): 11.7 ng/L
- FSH (female) LSM CFB (Resmetirom 100 mg OL): 1.3 IU/L
- FSH (male) LSM CFB (Resmetirom 100 mg OL): 0.6 IU/L
- Free testosterone (female) LSM CFB (Resmetirom 100 mg OL): -0.0006 µg/L
- Free testosterone (male) LSM CFB (Resmetirom 100 mg OL): 0.024 µg/L
- LH (female) LSM CFB (Resmetirom 100 mg OL): −0.0 IU/L
- LH (male) LSM CFB (Resmetirom 100 mg OL): 0.3 IU/L
- SHBG (female) LSM % CFB (Resmetirom 100 mg OL): 199.3%
- SHBG (female) LSM CFB (Resmetirom 100 mg OL): 68.6 nmol/L
- SHBG (male) LSM % CFB (Resmetirom 100 mg OL): 156.0%
- SHBG (male) LSM CFB (Resmetirom 100 mg OL): 44.7 nmol/L
- SHBG LSM % CFB (Resmetirom 100 mg OL): 182.6%
- SHBG LSM CFB (Resmetirom 100 mg OL): 60.3 nmol/L
- Testosterone (female) LSM CFB (Resmetirom 100 mg OL): 0.1 µg/L
- Testosterone (male) LSM CFB (Resmetirom 100 mg OL): 2.8 µg/L
